# Laboratory results from patent EP2366431A1, “Myeloperoxidase as a target in atrial fibrillation” (Universitätsklinikum Hamburg-Eppendorf, priority 2010, dated 2011).
# What was measured:
# [1] = test system: WT mice; assay: MPO content in mouse plasma and atrial tissue (ELISA) after angiotensin II infusion; type: in vivo; conditions: 2 week subcutaneous infusion of AngII
# Protocol: (§1) Angiotensin II and myeloperoxidase treatment of mice. We treated male C57BL/6J (WT) and MPOtmllus mice (Mpo^-/^-) on a C57BL/6 background, aged 12-15 weeks, via ALZET osmotic pumps with angiotensin II (AngII, 1.5 ng/g body weight/minute) or saline (vehicle) for 14 days prior to electrophysiological investigation (EPI). We treated another cohort of WT and Mpo^-/- mice via ALZET osmotic pumps with a connected jugular catheter with recombinant MPO (5.0, 12.5 and 50 pg/g body weight/minute, which we calculated to generate physiological plasma levels of MPO ranging between 100 and 1100 pM, respectively) or recombinant human serum albumin (HSA) for 7 days in combination with either AngII or saline prior to EPI. Animal experiments, conformed with the Guide for the Care and Use of Laboratory Animals published by the US National Institutes of Health and were approved by the review board of Hamburg and Bonn.
# Assessment of MPO content in human and mouse plasma and atrial tissue. We determined MPO levels by ELISA (human: Prognostix, Cleveland, USA; mouse: hycult biotechnology, The Netherlands).
# [2] = test system: WT and Mpo^-/- mice; assay: Electrophysiological investigation (EPI), induction of AF by right atrial stimulation, surface ECG; type: in vivo
# Protocol: as §1
# Electrophysiological investigation (EPI). We examined mice electrophysiologically using a single catheter technique ^19,32. We analyzed standard ECG-parameters obtained by a 6-lead-surface-ECG. EPI included transvenous atrial and ventricular recording and stimulation^21. For induction of AF, we performed atrial and ventricular burst and programmed atrial stimulations. We defined atrial fibrillation as rapid and fragmented atrial electrograms with irregular AV-nodal conduction for >1 s. AF-episodes persisting >1 min were classified as sustained AF. Number, duration, and probability of inducible AF-episodes were analyzed.
# [3] = test system: Langendorff perfused hearts from WT and Mpo^-/- mice; assay: Epicardial mapping of Langendorff-perfused hearts; conditions: atria from AngII treated Mpo^-/- mice, in contrast to AngII challenged WT mice
# Protocol: as §1
# Epicardial mapping of Langendorff-perfused hearts. We determined spontaneous and stimulated myocardial conduction velocities and characteristics of Langendorff perfused hearts by epicardial activation mapping using a 128-electrodearray^21.
# [4] = test system: WT and Mpo^-/- mice; assay: Radiotelemetric blood pressure measurements; type: in vivo; conditions: AngII, Mpo^-/- mice compared with WT mice
# Protocol: as §1
# Radiotelemetric blood pressure measurements. We performed blood pressure measurements as previously^36. In brief, we inserted the tip of the telemetry device (TA11 PA-C10; Data Sciences International, St. Paul, USA) into the carotid lumen. After 10 days, data acquisition started for 1 minute every 5 minutes for 3 days. […] We recorded blood pressure and heart rate for the following week in MPO treated mice and two weeks in AngII treated animals, respectively.
substance,measurement,setting,value
"angiotensin II (DRVYIHPF; Angiotensin-2; UniProt P01019 25-32, looked up) [AngII]",myocardial deposition of MPO,[1],elevated
same,circulating MPO plasma levels,[1]; 1.5 ng/g body weight/minute,substantially increased
same,inducibility of AF,"[2]; Mpo^-/- mice, AngII for 14 days",did not affect the inducibility of AF
same,"susceptibility for AF (number and duration of AF-episodes, probability of AF induction)","[2]; WT mice, AngII for 14 days, right atrial electrophysiological stimulation",higher susceptibility for AF
same,P wave duration,"[2]; WT mice, AngII treatment, in vivo surface ECG, p<0.001",significant prolongation
same,conduction velocity,[3],no retardation in conduction velocity
same,blood pressure elevating effect,[4],blunted
